We go through 1 substance from patent publication US9511010B2, “Compounds useful in the treatment and/or care of the skin, hair and/or mucous membranes and their cosmetic or pharmaceutical compositions” (Lubrizol Advanced Materials, Inc., priority 2012, dated 2016).

What all share (format): cell-based
The test system of data set [1] is HDFa cells. Briefly: Photoprotective effectiveness in human fibroblasts (Neutral Red viability after solar simulation irradiation). The following applies: for Effectiveness Photoprotection (%): irradiated; for Cell viability: preincubated 1 hour, irradiated ~60 J/cm^2, irradiated control 50.72%. The method, then: HDFa cells were put in culture medium for 24 hours in 96-well plates to form monolayers. Afterwards the cells were preincubated in darkness with 0.5 mg/mL, 0.1 mg/mL, 0.01 mg/mL of Ac-L-Tyr-L-Glu-L-Lys-L-Leu-L-Gln-L-Val-NH2 (Ac-SEQ ID NO:22-NH2) in PBS or PBS alone (control) for 1 hour at 37° C. and humidified air with 5% CO2.
The cells were irradiated with a solar simulation lamp at ˜60 J/cm^2 for 210 min at room temperature. A control plate was kept in the dark for the same time at room temperature. Once irradiation was completed the culture medium was changed for a new one and the plates were incubated for another 24 hours.
(§1) The cell viability was determined with the Neutral Red dye, measuring the absorbency at 540 nm in a spectrophotometer.
The photoprotective effectiveness was determined by comparing the viability obtained in cells treated with Ac-L-Tyr-L-Glu-L-Lys-L-Leu-L-Gln-L-Val-NH2 (Ac-SEQ ID NO:22-NH2) with the irradiated and non-irradiated control cell response.

The test system of data set [2] is senescence-associated β-galactosidase (SA-β-Gal) in HDFa cells. As to the kind of experiment: Reduction of cell senescence in human fibroblasts (SA-β-Gal histochemical detection). The following applies: for Proportion of positive SA-β-gal cells: 24 hours, HDF, control 27.28. The method, then: A widely used assay to evaluate cell senescence is histochemical detection of the activity, of the β-galactosidase, called SA-β-Gal. The activity of the β-galactosidase is derived from the increase in the lysosomal content of senescent cells, which enables the detection of the lysosomal β-galactosidase at pH 6.0. The β-galactosidase is considered a marker of senescence both in vitro and in vivo.
With this objective, HDFa cells from phase 4 of a person were seeded in 96-well plates at 10,000 cells/well in culture medium 106 supplemented with 2% LSGS. After 24 hours the culture medium was removed and the cells were treated with 0.025 mg/mL and 0.01 mg/mL of Ac-L-Tyr-L-Glu-L-Lys-L-Leu-L-Gln-L-Val-NH2 (Ac-SEQ ID NO:22-NH2) in culture medium 106 for another 24 hours at 37° C. and humidified air with 5% CO2.
As a positive control of cell senescence (old fibroblasts) HDFa from phase […] of a person were used treated with culture medium; as a negative control of cell senescence (juvenile fibroblasts) HDFa from phase 4 were used from a person treated with culture medium.
After the incubation period the activity of the senescence-associated β-galactosidase (SA-β-Gal) was determined with the Senescence Cells Histochemical Kit.

The test system of data set [3] is HDFa cells. As to the kind of experiment: Photo repair effectiveness in human fibroblasts (Neutral Red viability, treatment after irradiation). The following applies: for Cell viability: irradiated control 63.06%; for Effectiveness Photo-repair (%): irradiated. The procedure:
HDFa cells were put in culture medium for 24 hours in 96-well plates to form monolayers at 37° C. and humidified air with 5% CO2. Afterwards the culture medium was changed for D-PBS and the cells were irradiated with a solar simulation lamp at ˜40 J/cm^2 for 180 min at room temperature. A control plate was kept in the dark for the same time at room temperature.
Afterwards 0.5 mg/mL, 0.1 mg/mL, 0.01 mg/mL of Ac-L-Tyr-L-Glu-L-Lys-L-Leu-L-Gln-L-Val-NH2 (Ac-SEQ ID NO:22-NH2) in culture medium or culture medium alone (control) were added to the cells and they were incubated for 24 hours in darkness at 37° C. and humidified air with 5% CO2.
as §1
The photorepair effectiveness was determined by comparing the viability obtained in cells treated with Ac-L-Tyr-L-Glu-L-Lys-L-Leu-L-Gln-L-Val-N H2 (Ac-SEQ ID NO:22-NH2) with the irradiated and non-irradiated control cell response.

Data set [4] concerns Fibroblasts from a sample of human skin. As to the kind of experiment: Alkaline comet assay, protection against genotoxicity induced by photo-activated benzo[a]pyrene (BaP). The following applies: 0.01 mg/mL. The procedure:
Fibroblasts from a sample of human skin were isolated and incubated with 0.01 mg/mL of Ac-L-Tyr-L-Glu-L-Lys-L-Leu-L-Gln-L-Val-NH2 (Ac-SEQ ID NO:22-NH2) or carrier (control) with and without the presence of 40 μM BaP for 2 hours at 37° C. Once this contact time was over the cells were irradiated with 90 KJ/m^2 UVA/visible light (320-800 nm) for a maximum of 2 min at 4° C. to induce photo activation of BaP which damages the DNA. This damage was analyzed by the alkaline comet assay, detecting the DNA breakages. The protective effectiveness of the damage to the DNA of the different treatments was determined by analyzing the images using the software Fenestra Komet 5.5, expressing the damage to the DNA as the Olive Tail Moment (OTM; arbitrary units) and the χ^2 OTM function was determined, related to the quantity of damaged DNA, with the software TableCurve 2D.
As a negative control all the non-irradiated treatments were included (control, 40 μM BaP, 0.01 mg/mL of Ac-SEQ ID NO:22-NH2 and 0.01 mg/mL of (Ac-SEQ ID NO:22-NH2)+40 μM BaP). In table 14 the protective effectiveness results of Ac-SEQ ID NO:22-NH2 in human fibroblasts are shown.
The protection percentage conferred by the compound Ac-SEQ ID NO:22-NH2 against DNA damage induced by BaP was shown as the relationship of the value of χ^2 OTM for treatment with the compound Ac-SEQ ID NO:22-NH2 in the presence of photo-activated BaP with regard to the value of χ^2 OTM of the treatment with photo-activated BaP according to the formula resulting in a protection percentage conferred by the compound Ac-SEQ ID NO:22-NH2 against damage to DNA induced by BaP of 84.3%.

For the substance “Ac-YEKLQV-NH2 [Ac-SEQ ID NO: 22-NH2, Ac-L-Tyr-L-Glu-L-Lys-L-Leu-L-Gln-L-Val-NH2]”, the “Effectiveness Photoprotection (%)” value is 16.24% in data set [1] (0.01 mg/mL), 20.06% in data set [1] (0.1 mg/mL) and 35.10% in data set [1] (0.5 mg/mL). Further, the Cell viability in data set [1] (0.01 mg/mL) is on record as 58.96%; in data set [1] (0.1 mg/mL), 60.90%; in data set [1] (0.5 mg/mL), 68.52%; in data set [3] (0.01 mg/mL for 24 hours after irradiation ~40 J/cm^2), 71.99%; in data set [3] (0.1 mg/mL for 24 hours after irradiation ~40 J/cm^2) it was 70.71%; in data set [3] (0.5 mg/mL for 24 hours after irradiation ~40 J/cm^2), 71.40%. For the same substance, the entries for the “Proportion of positive SA-β-gal cells” value in data set [2] (0.01 mg/mL) and in data set [2] (0.025 mg/mL) were 7.02 and 16.90, respectively. Also, in data set [2] (HDFa), the “Effect on proportion of cells containing β-galactosidase (in words)” value is recorded as “reduced the proportion of cells containing β-galactosidase”. Further, the results for the “Effectiveness Photo-repair (%)” value in data set [3] (0.01 mg/mL), in data set [3] (0.1 mg/mL) and in data set [3] (0.5 mg/mL) were 14.16%, 12.13% and 13.23%, respectively. Moreover, the “χ^2 OTM” value came out at 3.52 in data set [4] (40 μM BaP, irradiation with UVA/visible, BaP alone 11.38); 2.18 in data set [4] (40 μM BaP, no irradiation, BaP alone 2.07); 2.09 in data set [4] (no BaP, irradiation with UVA/visible, control 2.25); 2.26 in data set [4] (no BaP, no irradiation, control 2.08). Moreover, in data set [4] (photo-activated 40 μM BaP), the “protection percentage against damage to DNA induced by BaP” value amounted to 84.3%.
